# From patent US9050341B2, “Methods of treating drug resistant and other tumors by administering 6,7-dialkoxy quinazoline derivatives” (NATCO PHARMA LIMITED, priority 2009, dated 2015)
# Columns and labels:
# Assay in all cases: KinomeScan kinase profiling
# Format in all cases: binding
# [1] = target: T1, ABL2 (Homo sapiens, UniProt P42684)
# T1 construct: host or cells: E. coli host derived from BL21 (T7 phage lysate)
# Method in brief: (§1)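 Kinases were expressed as T7 phage fusions in a BL21-derived E. coli host and the cleared lysates were used. Ligand beads were blocked with biotin and buffer (1% BSA, 0.05% Tween 20, 1 mM DTT). Compounds came from 40× DMSO stocks, and phage in the eluates was titred by qPCR.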
# [2] = target: T2, ACVR2A (Homo sapiens, UniProt P27037)
# T2 construct: host or cells: E. coli host derived from BL21 (T7 phage lysate)
# Method in brief: as §1
# [3] = target: T3, CSNK1E (Homo sapiens, UniProt P49674)
# T3 construct: host or cells: T7 phage in E. coli (BL21-derived)
# Method in brief: as §1
# [4] = target: T4, DCAMKL3 (Homo sapiens, UniProt Q9C098)
# T4 construct: purchased Ambit Biosciences Corp (KinomeScan); host or cells: T7 phage in E. coli host derived from BL21
# Method in brief: as §1
# [5] = target: T5, FGFR3 (G697C) (Homo sapiens, UniProt P22607, G697C)
# T5 construct: host or cells: E. coli host derived from BL21, infected with T7 phage
# Method in brief: as §1
# [6] = target: T6, FGFR3 (Homo sapiens, UniProt P22607)
# T6 construct: host or cells: E. coli host derived from BL21, infected with T7 phage
# Method in brief: as §1
# [7] = target: T7, GAK (Homo sapiens, UniProt O14976)
# T7 construct: host or cells: E. coli host derived from BL21, infected with T7 phage
# Method in brief: as §1
# [8] = target: T8, IKK-alpha (Homo sapiens, UniProt O15111)
# T8 construct: host or cells: T7 phage in E. coli host derived from BL21
# Method in brief: as §1
# [9] = target: T9, JAK3 (JH1domain-catalytic) (Homo sapiens, UniProt P52333)
# T9 construct: JAK3 (JH1domain-catalytic); host or cells: T7 phage in E. coli host derived from BL21
# Method in brief: as §1
# [10] = target: T10, JNK2 (Homo sapiens, UniProt P45984)
# T10 construct: host or cells: T7 phage in E. coli host derived from BL21
# Method in brief: as §1
# [11] = target: T11, LYN (Homo sapiens, UniProt P07948)
# T11 construct: host or cells: E. coli derived from BL21, infected with T7 phage
# Method in brief: as §1
# [12] = target: T12, MLK2 (Homo sapiens, UniProt Q02779)
# T12 construct: host or cells: T7 phage in E. coli host derived from BL21
# Method in brief: as §1
# [13] = target: T13, MYO3A (Homo sapiens, UniProt Q8NEV4)
# T13 construct: host or cells: T7 phage in E. coli host derived from BL21
# Method in brief: as §1
# [14] = target: T14, PAK1 (Homo sapiens, UniProt Q13153)
# T14 construct: host or cells: E. coli host derived from the BL21 strain, infected with T7 phage
# Method in brief: as §1
# [15] = target: T15, PIK3CA (E545K) (Homo sapiens, UniProt P42336, E545K)
# T15 construct: host or cells: E. coli host derived from the BL21 strain, infected with T7 phage
# Method in brief: as §1
# [16] = target: T16, PIK3CD (Homo sapiens, UniProt O00329)
# T16 construct: purchased Ambit Biosciences Corp (KinomeScan); host or cells: E. coli host derived from BL21, infected with T7 phage
# Method in brief: as §1
# [17] = target: T17, PLK4 (Homo sapiens, UniProt O00444)
# T17 construct: purchased Ambit Biosciences Corp (KinomeScan); host or cells: E. coli host derived from BL21, infected with T7 phage
# Method in brief: as §1
# [18] = target: T18, PRKCE (Homo sapiens, UniProt Q02156)
# T18 construct: purchased Ambit Biosciences Corp (KinomeScan); host or cells: E. coli host derived from BL21, infected with T7 phage
# Method in brief: as §1
# [19] = target: T19, PRKG2 (Homo sapiens, UniProt Q13237)
# T19 construct: purchased Ambit Biosciences Corp (KinomeScan); host or cells: E. coli host derived from BL21, infected with T7 phage
# Method in brief: as §1
# [20] = target: T20, RET (Homo sapiens, UniProt P07949)
# T20 construct: host or cells: E. coli host derived from BL21, T7 phage lysate
# Method in brief: as §1
# [21] = target: T21, STK35 (Homo sapiens, UniProt Q8TDR2)
# T21 construct: host or cells: E. coli host derived from the BL21 strain, T7 phage lysate
# Method in brief: as §1
# [22] = target: T22, TNK2 (Homo sapiens, UniProt Q07912)
# T22 construct: purchased Ambit Biosciences Corp (KinomeScan); host or cells: E. coli host derived from the BL21 strain (T7 phage lysate)
# Method in brief: as §1
# [23] = target: T23, TXK (Homo sapiens, UniProt P42681)
# T23 construct: purchased Ambit Biosciences Corp (KinomeScan); host or cells: E. coli host derived from the BL21 strain (T7 phage lysate)
# Method in brief: as §1
# T17 sequence (O00444 whole entry): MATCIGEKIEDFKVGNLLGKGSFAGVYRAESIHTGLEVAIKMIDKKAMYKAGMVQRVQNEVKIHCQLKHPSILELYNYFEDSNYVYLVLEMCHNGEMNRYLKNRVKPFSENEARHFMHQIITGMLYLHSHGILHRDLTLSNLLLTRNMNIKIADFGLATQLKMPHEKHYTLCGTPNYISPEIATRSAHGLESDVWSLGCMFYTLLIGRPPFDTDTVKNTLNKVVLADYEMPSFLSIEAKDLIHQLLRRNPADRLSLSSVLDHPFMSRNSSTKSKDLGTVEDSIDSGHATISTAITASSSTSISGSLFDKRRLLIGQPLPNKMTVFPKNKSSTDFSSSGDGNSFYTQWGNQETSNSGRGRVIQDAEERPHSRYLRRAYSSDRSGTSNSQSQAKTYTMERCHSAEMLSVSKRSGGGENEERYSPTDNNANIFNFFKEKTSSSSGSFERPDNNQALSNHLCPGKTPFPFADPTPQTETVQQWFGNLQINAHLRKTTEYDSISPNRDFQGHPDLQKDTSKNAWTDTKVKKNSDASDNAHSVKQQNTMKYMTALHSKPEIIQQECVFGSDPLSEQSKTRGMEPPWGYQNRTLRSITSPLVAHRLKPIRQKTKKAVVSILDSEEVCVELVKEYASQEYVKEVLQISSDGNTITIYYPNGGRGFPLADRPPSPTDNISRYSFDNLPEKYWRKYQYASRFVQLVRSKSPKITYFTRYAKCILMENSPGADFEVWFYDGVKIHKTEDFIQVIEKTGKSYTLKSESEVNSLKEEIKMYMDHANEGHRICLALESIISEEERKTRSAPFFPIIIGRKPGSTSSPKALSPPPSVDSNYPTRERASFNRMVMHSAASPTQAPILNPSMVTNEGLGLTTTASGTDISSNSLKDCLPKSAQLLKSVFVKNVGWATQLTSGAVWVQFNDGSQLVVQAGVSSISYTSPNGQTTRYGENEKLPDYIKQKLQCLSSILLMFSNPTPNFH
# T13 sequence (Q8NEV4 whole entry): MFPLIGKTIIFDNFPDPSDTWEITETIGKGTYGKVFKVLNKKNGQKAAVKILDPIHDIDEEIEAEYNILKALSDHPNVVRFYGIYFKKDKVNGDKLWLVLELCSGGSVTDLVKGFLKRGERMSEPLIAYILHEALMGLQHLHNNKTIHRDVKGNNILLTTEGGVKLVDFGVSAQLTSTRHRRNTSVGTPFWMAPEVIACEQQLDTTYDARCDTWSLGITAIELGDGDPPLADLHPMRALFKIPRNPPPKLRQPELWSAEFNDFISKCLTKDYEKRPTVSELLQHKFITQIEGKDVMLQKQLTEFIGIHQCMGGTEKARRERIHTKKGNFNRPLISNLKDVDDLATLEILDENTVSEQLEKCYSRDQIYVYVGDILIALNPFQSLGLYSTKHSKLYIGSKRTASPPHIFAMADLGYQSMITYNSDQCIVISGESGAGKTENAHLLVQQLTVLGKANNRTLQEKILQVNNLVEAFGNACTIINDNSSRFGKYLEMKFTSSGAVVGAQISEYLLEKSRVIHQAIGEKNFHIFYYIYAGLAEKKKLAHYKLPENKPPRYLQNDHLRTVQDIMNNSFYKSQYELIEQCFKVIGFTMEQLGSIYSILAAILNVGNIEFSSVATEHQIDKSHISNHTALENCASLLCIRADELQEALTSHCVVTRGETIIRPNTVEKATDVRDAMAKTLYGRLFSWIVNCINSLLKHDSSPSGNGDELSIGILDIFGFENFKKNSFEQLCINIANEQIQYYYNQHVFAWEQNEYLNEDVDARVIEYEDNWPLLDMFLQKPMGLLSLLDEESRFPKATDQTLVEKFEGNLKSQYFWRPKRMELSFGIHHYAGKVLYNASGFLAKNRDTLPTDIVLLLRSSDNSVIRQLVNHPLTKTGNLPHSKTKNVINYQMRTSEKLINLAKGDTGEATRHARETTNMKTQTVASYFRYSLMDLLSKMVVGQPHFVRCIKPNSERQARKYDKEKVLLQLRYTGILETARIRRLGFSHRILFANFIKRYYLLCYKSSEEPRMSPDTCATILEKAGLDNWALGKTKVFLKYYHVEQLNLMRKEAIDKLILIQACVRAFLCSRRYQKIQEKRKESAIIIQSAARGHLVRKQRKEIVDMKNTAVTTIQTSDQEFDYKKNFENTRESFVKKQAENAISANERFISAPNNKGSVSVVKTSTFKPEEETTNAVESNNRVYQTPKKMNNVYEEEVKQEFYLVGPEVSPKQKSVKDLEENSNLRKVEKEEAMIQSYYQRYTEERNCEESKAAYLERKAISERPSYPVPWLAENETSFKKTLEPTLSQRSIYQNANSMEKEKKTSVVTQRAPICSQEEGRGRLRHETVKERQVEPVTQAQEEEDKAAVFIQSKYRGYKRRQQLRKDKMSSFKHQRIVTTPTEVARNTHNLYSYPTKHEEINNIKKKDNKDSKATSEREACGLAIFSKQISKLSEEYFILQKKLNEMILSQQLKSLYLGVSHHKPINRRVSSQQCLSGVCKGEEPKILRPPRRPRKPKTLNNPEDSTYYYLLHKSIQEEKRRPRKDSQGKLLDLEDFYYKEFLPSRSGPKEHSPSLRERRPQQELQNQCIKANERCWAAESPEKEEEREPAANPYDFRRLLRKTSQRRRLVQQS
# T7 sequence (O14976 whole entry): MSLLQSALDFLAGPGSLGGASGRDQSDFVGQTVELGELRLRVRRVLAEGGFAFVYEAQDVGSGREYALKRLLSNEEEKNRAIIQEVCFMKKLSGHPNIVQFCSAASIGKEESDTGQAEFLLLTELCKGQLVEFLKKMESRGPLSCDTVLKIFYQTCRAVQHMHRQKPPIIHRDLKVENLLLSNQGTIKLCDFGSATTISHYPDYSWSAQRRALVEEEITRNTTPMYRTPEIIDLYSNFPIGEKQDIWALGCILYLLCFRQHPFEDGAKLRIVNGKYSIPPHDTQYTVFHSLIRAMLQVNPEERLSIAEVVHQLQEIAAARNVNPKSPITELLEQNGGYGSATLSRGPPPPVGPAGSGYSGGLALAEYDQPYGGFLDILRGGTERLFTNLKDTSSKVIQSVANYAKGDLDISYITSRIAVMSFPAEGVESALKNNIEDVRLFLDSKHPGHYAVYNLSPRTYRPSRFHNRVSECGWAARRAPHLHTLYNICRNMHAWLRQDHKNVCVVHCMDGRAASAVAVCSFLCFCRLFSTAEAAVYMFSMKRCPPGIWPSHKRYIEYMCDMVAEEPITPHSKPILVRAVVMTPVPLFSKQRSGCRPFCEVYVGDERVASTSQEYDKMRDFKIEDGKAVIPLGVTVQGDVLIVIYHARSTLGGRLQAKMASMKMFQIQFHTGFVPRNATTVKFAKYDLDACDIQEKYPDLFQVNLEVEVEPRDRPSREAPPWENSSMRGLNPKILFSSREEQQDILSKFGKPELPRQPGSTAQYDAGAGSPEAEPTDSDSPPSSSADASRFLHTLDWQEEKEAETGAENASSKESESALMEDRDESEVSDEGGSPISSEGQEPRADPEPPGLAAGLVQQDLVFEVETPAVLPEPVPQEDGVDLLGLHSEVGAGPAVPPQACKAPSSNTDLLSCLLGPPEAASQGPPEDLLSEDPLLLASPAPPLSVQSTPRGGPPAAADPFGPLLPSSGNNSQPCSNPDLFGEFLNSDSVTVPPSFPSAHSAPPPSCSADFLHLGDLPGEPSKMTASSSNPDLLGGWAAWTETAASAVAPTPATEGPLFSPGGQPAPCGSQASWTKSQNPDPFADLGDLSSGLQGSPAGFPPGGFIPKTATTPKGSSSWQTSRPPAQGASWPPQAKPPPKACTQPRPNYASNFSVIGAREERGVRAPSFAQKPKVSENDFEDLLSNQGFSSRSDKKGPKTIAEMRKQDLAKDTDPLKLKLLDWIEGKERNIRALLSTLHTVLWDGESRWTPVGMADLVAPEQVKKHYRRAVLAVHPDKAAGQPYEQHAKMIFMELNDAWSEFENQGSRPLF
# T21 sequence (Q8TDR2 whole entry): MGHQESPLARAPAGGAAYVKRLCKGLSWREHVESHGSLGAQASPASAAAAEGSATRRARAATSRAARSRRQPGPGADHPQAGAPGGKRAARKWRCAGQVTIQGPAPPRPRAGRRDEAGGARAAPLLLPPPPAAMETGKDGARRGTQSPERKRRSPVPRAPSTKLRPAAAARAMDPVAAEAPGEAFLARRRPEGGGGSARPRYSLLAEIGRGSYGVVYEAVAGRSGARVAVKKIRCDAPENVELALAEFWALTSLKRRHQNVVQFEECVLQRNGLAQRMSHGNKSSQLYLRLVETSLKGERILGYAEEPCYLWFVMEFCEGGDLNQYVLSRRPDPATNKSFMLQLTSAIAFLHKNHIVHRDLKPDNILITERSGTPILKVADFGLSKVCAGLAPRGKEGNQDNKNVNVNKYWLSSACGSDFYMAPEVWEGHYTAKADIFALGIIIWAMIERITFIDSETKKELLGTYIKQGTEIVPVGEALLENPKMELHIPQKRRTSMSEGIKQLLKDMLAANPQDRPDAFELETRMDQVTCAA
# T14 sequence (Q13153 whole entry): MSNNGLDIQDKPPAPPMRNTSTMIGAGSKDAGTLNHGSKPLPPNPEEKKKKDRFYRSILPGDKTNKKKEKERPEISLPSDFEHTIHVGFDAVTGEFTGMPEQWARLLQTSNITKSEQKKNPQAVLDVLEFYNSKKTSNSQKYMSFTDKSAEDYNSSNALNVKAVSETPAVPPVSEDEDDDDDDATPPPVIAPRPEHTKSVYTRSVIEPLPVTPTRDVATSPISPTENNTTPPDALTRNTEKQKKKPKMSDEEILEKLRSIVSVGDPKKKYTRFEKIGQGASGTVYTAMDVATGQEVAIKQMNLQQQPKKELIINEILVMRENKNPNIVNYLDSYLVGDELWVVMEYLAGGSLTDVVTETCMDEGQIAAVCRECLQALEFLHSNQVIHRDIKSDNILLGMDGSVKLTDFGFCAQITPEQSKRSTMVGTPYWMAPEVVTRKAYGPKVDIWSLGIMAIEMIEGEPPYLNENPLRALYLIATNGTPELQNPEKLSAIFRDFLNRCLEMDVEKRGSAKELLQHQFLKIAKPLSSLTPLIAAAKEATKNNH
structure (smiles),measurement,setting,value
"C#Cc1cccc(Nc2ncnc3cc(OC)c(OCCCN4CCOCC4)cc23)c1 [NRC-2694, N-(3-ethylnylphenyl)-7-methoxy-6-[3-(4-morpholinyl)propoxy]-4-quinazolinamine]",% Ctrl @ 10000 nM,[1],43 % Ctrl
same,% Ctrl @ 10000 nM,[2],92 % Ctrl
same,% Ctrl @ 10000 nM,[3],9.6 % Ctrl
same,% Ctrl @ 10000 nM,[4],14 % Ctrl
same,% Ctrl @ 10000 nM,[5],82 % Ctrl
same,% Ctrl @ 10000 nM,[6],100 % Ctrl
same,% Ctrl @ 10000 nM,[7],0.95 % Ctrl
same,% Ctrl @ 10000 nM,[8],41 % Ctrl
same,% Ctrl @ 10000 nM,[9],72 % Ctrl
same,% Ctrl @ 10000 nM,[10],95 % Ctrl
same,% Ctrl @ 10000 nM,[11],13 % Ctrl
same,% Ctrl @ 10000 nM,[12],83 % Ctrl
same,% Ctrl @ 10000 nM,[13],70 % Ctrl
same,% Ctrl @ 10000 nM,[14],74 % Ctrl
same,% Ctrl @ 10000 nM,[15],100 % Ctrl
same,% Ctrl @ 10000 nM,[16],89 % Ctrl
same,% Ctrl @ 10000 nM,[17],70 % Ctrl
same,% Ctrl @ 10000 nM,[18],65 % Ctrl
same,% Ctrl @ 10000 nM,[19],40 % Ctrl
same,% Ctrl @ 10000 nM,[20],65 % Ctrl
same,% Ctrl @ 10000 nM,[21],52 % Ctrl
same,% Ctrl @ 10000 nM,[22],37 % Ctrl
same,% Ctrl @ 10000 nM,[23],39 % Ctrl
